# Data: patent US20250177318A1, “CMT-3 FORMULATIONS AND METHODS OF USING THE SAME” (The Research Foundation for the State University of New York, priority 2022, published 2025)
# Key:
# [1] = Solubility of CMT-3 in aqueous solutions (statement); assay type: physicochemical
# [2] = system: IL-1β; details: leucocytes isolated from patients within 24 h of the onset of direct ARDS; cited from earlier work
structure (smiles),measurement,setting,value
"NC(=O)C1=C(O)CC2CC3Cc4cccc(O)c4C(=O)C3=C(O)[C@]2(O)C1=O (some centres unmarked) [CMT-3, 6-demethyl-6-deoxy-4-de(dimethylamino)tetracycline]",Solubility in aqueous solutions,[1],barely dissolved in aqueous solutions
same,IL-1β production in alveolar leucocytes,[2],significantly suppressed
